From PMC9512702 (Nature Chemical Biology, 2022)
Values after ≈ are worked out from the molar mass of the structure shown. Where a SMILES comes first, the peptide text is derived from it. [ ]: non-standard residue; d: D form. Aib = CC(C)(N)C(=O)O

What was measured:
[1] = target: SARS-CoV-2 RBD binding to immobilized ACE2 (Severe acute respiratory syndrome coronavirus 2, UniProt P0DTC2); assay: biochemical
[2] = Solubility measurement (peptide concentration in saturated solution); conditions: sodium-phosphate buffer, pH 7.4, aqueous buffer, thermodynamic from solid
Procedure: Approximately 2 mg of each peptide was added to 500 µl of buffer in 1.5-ml Eppendorf tubes. The tubes were shaken at 25 °C for 2 h on a 900 r.p.m. vortex shaker. The samples were centrifuged at 12,000 r.p.m. for 15 min to remove the precipitate and the supernatant was analyzed by ultraviolet–visible light (UV–vis) spectrometry.

SARS-CoV-2 RBD = SARS-CoV-2 RBD (Severe acute respiratory syndrome coronavirus 2, UniProt P0DTC2); assay: biochemical; assay type: binding

Compound: CC[C@H](C)[C@H](NC(=O)[C@H](CC(C)C)NC(=O)[C@H](CC(=O)O)NC(=O)[C@H](CO)NC(=O)[C@@H](NC(=O)[C@H](CCCNC(=N)N)NC(=O)[C@H](CCSC)NC(=O)[C@H](CO)NC(=O)[C@H](C)NC(=O)[C@H](CCC(=O)O)NC(=O)[C@H](C)NC(=O)[C@H](Cc1c[nH]cn1)NC(=O)CNC(=O)[C@H](CC(C)C)NC(=O)[C@H](CCC(=O)O)NC(=O)[C@H](CC(=O)O)NC(=O)[C@H](CC(C)C)NC(=O)[C@H](CC(C)C)NC(=O)[C@H](CCCNC(=N)N)NC(=O)[C@H](CCSC)NC(=O)[C@@H](NC(=O)[C@H](CCC(=O)O)NC(=O)[C@H](Cc1ccc(O)cc1)NC(=O)[C@@H](NC(=O)[C@H](CCCCN)NC(=O)[C@H](CCC(N)=O)NC(=O)[C@H](CC(C)C)NC(=O)[C@@H](NC(=O)[C@H](Cc1c[nH]c2ccccc12)NC(=O)[C@H](CCC(=O)O)NC(=O)[C@H](CCCCN)NC(=O)[C@@H](N)CC(=O)O)[C@@H](C)CC)[C@@H](C)CC)[C@@H](C)CC)C(C)C)C(=O)N[C@@H](Cc1ccc(O)cc1)C(=O)N[C@@H](CCC(=O)O)C(=O)N[C@@H](Cc1ccccc1)C(=O)N[C@@H](CCSC)C(=O)N[C@@H](CCCCN)C(=O)N[C@@H](CCCCN)C(N)=O [SIH-1]
- IC50 [1]: 2500 to 5000 nM
- solubility thermodynamic at 2 h [2]: 17 µM (≈ 78.9 µg/mL)

Compound: CC[C@H](C)[C@H](NC(=O)[C@H](CC(C)C)NC(=O)[C@H](CC(=O)O)NC(=O)[C@H](CO)NC(=O)[C@@H](NC(=O)[C@H](CCCNC(=N)N)NC(=O)[C@H](CCSC)NC(=O)[C@H](CO)NC(=O)[C@H](C)NC(=O)[C@H](CCC(=O)O)NC(=O)C(C)(C)NC(=O)[C@H](Cc1c[nH]cn1)NC(=O)CNC(=O)[C@H](CC(C)C)NC(=O)[C@H](CCC(=O)O)NC(=O)[C@H](CC(=O)O)NC(=O)[C@H](CC(C)C)NC(=O)[C@H](CC(C)C)NC(=O)[C@H](CCCNC(=N)N)NC(=O)[C@H](CCSC)NC(=O)[C@@H](NC(=O)[C@H](CCC(=O)O)NC(=O)[C@H](Cc1ccc(O)cc1)NC(=O)[C@@H](NC(=O)[C@H](CCCCN)NC(=O)[C@H](CCC(N)=O)NC(=O)[C@H](CC(C)C)NC(=O)[C@@H](NC(=O)[C@H](Cc1c[nH]c2ccccc12)NC(=O)[C@H](CCC(=O)O)NC(=O)[C@H](CCCCN)NC(=O)[C@@H](N)CC(=O)O)[C@@H](C)CC)[C@@H](C)CC)[C@@H](C)CC)C(C)C)C(=O)N[C@@H](Cc1ccc(O)cc1)C(=O)N[C@@H](CCC(=O)O)C(=O)N[C@@H](Cc1ccccc1)C(=O)N[C@@H](CCSC)C(=O)N[C@@H](CCCCN)C(=O)N[C@@H](CCCCN)C(N)=O [SIH-2] (H-DKEWILQKIYEIMRLLDELGH[Aib]EASMRVSDLIYEFMKK-NH2)
- IC50 [1]: 1250 to 2500 nM
- solubility thermodynamic at 2 h [2]: 32 µM (≈ 149 µg/mL)

Compound: CC[C@H](C)[C@H](NC(=O)[C@H](CC(C)C)NC(=O)[C@H](CC(=O)O)NC(=O)[C@H](CO)NC(=O)[C@@H](NC(=O)[C@H](CCCNC(=N)N)NC(=O)[C@H](CCSC)NC(=O)[C@H](CO)NC(=O)[C@H](C)NC(=O)[C@H](CCC(=O)O)NC(=O)C(C)(C)NC(=O)[C@H](Cc1c[nH]cn1)NC(=O)[C@@H](C)NC(=O)[C@H](CC(C)C)NC(=O)[C@H](CCC(=O)O)NC(=O)[C@H](CC(=O)O)NC(=O)[C@H](CC(C)C)NC(=O)[C@H](CC(C)C)NC(=O)[C@H](CCCNC(=N)N)NC(=O)[C@H](CCSC)NC(=O)[C@@H](NC(=O)[C@H](CCC(=O)O)NC(=O)[C@H](Cc1ccc(O)cc1)NC(=O)[C@@H](NC(=O)[C@H](CCCCN)NC(=O)[C@H](CCC(N)=O)NC(=O)[C@H](CC(C)C)NC(=O)[C@@H](NC(=O)[C@H](Cc1c[nH]c2ccccc12)NC(=O)[C@H](CCC(=O)O)NC(=O)[C@H](CCCCN)NC(=O)[C@@H](N)CC(=O)O)[C@@H](C)CC)[C@@H](C)CC)[C@@H](C)CC)C(C)C)C(=O)N[C@@H](Cc1ccc(O)cc1)C(=O)N[C@@H](CCC(=O)O)C(=O)N[C@@H](Cc1ccccc1)C(=O)N[C@@H](CCSC)C(=O)N[C@@H](CCCCN)C(=O)N[C@@H](CCCCN)C(N)=O [SIH-3] (H-DKEWILQKIYEIMRLLDEL[dA]H[Aib]EASMRVSDLIYEFMKK-NH2)
- IC50 [1]: 125 to 250 nM
- solubility thermodynamic at 2 h [2]: 95 µM (≈ 444 µg/mL)

Compound: CC[C@H](C)[C@H](NC(=O)[C@H](CC(C)C)NC(=O)[C@H](CC(=O)O)NC(=O)[C@H](CO)NC(=O)[C@@H](NC(=O)[C@H](CCCNC(=N)N)NC(=O)[C@H](CCSC)NC(=O)[C@H](CO)NC(=O)[C@H](C)NC(=O)[C@H](CCC(=O)O)NC(=O)C(C)(C)NC(=O)[C@H](CC(N)=O)NC(=O)[C@@H](C)NC(=O)[C@H](CC(C)C)NC(=O)[C@H](CCC(=O)O)NC(=O)[C@H](CC(=O)O)NC(=O)[C@H](CC(C)C)NC(=O)[C@H](CC(C)C)NC(=O)[C@H](CCCNC(=N)N)NC(=O)[C@H](CCSC)NC(=O)[C@@H](NC(=O)[C@H](CCC(=O)O)NC(=O)[C@H](Cc1ccc(O)cc1)NC(=O)[C@@H](NC(=O)[C@H](CCCCN)NC(=O)[C@H](CCC(N)=O)NC(=O)[C@H](CC(C)C)NC(=O)[C@@H](NC(=O)[C@H](Cc1c[nH]c2ccccc12)NC(=O)[C@H](CCC(=O)O)NC(=O)[C@H](CCCCN)NC(=O)[C@@H](N)CC(=O)O)[C@@H](C)CC)[C@@H](C)CC)[C@@H](C)CC)C(C)C)C(=O)N[C@@H](Cc1ccc(O)cc1)C(=O)N[C@@H](CCC(=O)O)C(=O)N[C@@H](Cc1ccccc1)C(=O)N[C@@H](CCSC)C(=O)N[C@@H](CCCCN)C(=O)N[C@@H](CCCCN)C(N)=O [SIH-4] (H-DKEWILQKIYEIMRLLDEL[dA]N[Aib]EASMRVSDLIYEFMKK-NH2)
- IC50 [1]: 250 to 500 nM
- solubility thermodynamic at 2 h [2]: 220 µM (≈ 1020 µg/mL)

Compound: CC[C@H](C)[C@H](NC(=O)[C@H](CCC(=O)O)NC(=O)[C@H](CC(=O)O)NC(=O)[C@H](CO)NC(=O)[C@@H](NC(=O)[C@H](CCCNC(=N)N)NC(=O)[C@H](CCSC)NC(=O)[C@H](CO)NC(=O)[C@H](C)NC(=O)[C@H](CCC(=O)O)NC(=O)C(C)(C)NC(=O)[C@H](CC(=O)O)NC(=O)[C@@H](C)NC(=O)[C@H](CC(C)C)NC(=O)[C@H](CCC(=O)O)NC(=O)[C@H](CC(=O)O)NC(=O)[C@H](CC(C)C)NC(=O)[C@H](CC(C)C)NC(=O)[C@H](CCCNC(=N)N)NC(=O)[C@H](CCSC)NC(=O)[C@H](CCC(=O)O)NC(=O)[C@H](CCC(=O)O)NC(=O)[C@H](Cc1ccc(O)cc1)NC(=O)[C@@H](NC(=O)[C@H](CCCCN)NC(=O)[C@H](CCC(N)=O)NC(=O)[C@H](CC(C)C)NC(=O)[C@@H](NC(=O)[C@H](Cc1c[nH]c2ccccc12)NC(=O)[C@H](CCC(=O)O)NC(=O)[C@H](CCCCN)NC(=O)[C@@H](N)CC(=O)O)[C@@H](C)CC)[C@@H](C)CC)C(C)C)C(=O)N[C@@H](Cc1ccc(O)cc1)C(=O)N[C@@H](CCC(=O)O)C(=O)N[C@@H](Cc1ccccc1)C(=O)N[C@@H](CCSC)C(=O)N[C@@H](CCCCN)C(=O)N[C@@H](CCCCN)C(N)=O [SIH-15] (H-DKEWILQKIYEEMRLLDEL[dA]D[Aib]EASMRVSDEIYEFMKK-NH2)
- Kd (SARS-CoV-2 RBD; KD (direct binding to RBD)): 1.7 nM
- kon (SARS-CoV-2 RBD; read-out: ka): 150000 M⁻¹ s⁻¹
- IC50 [1]: 250 to 500 nM
